# Experimental data published in the supplement of paper PMC10307832.
# Assays:
# Assay in all cases: relative viability (nuclei count vs DMSO), 5 days (fraction); higher = more cells survive
# [1] = compound: CC1=C(C(=NN1)C)CC2=C(C3=C(S2)N(C(=O)N(C3=O)C)CC(C)C)C(=O)N4C[C@@H](CO4)O + CC1(C)CCC(c2ccc(Cl)cc2)=C(CN2CCN(c3ccc(C(=O)NS(=O)(=O)c4ccc(N[C@H](CCN5CCOCC5)CSc5ccccc5)c(S(=O)(=O)C(F)(F)F)c4)cc3)CC2)C1 [Navitoclax] (partner 0.5 µM)
# How it was run: (§1)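 Cells from lung cancer lines were seeded into 1536-well plates and, one day later, dosed by pin tool. Treatments were either a single drug or a fixed dose of an anchor drug with five library-drug doses (not always all listed) in √10 steps. After 5 days, nuclei were stained in a one-step fixation (final 0.05% Triton X-100, 1% formaldehyde, 1 ug/ml Hoechst) and counted on 4× images, and relative viability is the treated-to-vehicle nuclei ratio, as the median of duplicate plates.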
# [2] = compound: CC1=C(C(=NN1)C)CC2=C(C3=C(S2)N(C(=O)N(C3=O)C)CC(C)C)C(=O)N4C[C@@H](CO4)O + N=C(N)NC(=N)NCCc1ccccc1 [Phenformin] (partner 250 µM)
# How it was run: as §1
# [3] = compound: Cc1ccccc1C(C(=O)NC1CCCCC1)N(C(=O)Cn1ccnc1C)c1cccc(F)c1 [IDH-C35] + CCNC(=O)c1noc(-c2cc(C(C)C)c(O)cc2O)c1-c1ccc(CN2CCOCC2)cc1 [Luminespib] (partner 0.01 µM)
# How it was run: as §1
# [4] = compound: Cc1ccccc1C(C(=O)NC1CCCCC1)N(C(=O)Cn1ccnc1C)c1cccc(F)c1 [IDH-C35] + Cc1nc(NC(=O)N2CCC[C@H]2C(N)=O)sc1-c1ccnc(C(C)(C)C(F)(F)F)c1 [Alpelisib] (partner 2 µM)
# How it was run: as §1
Cell Line,relative viability ([1]; first compound 0.0025 µM),relative viability ([1]; first compound 0.007906 µM),relative viability ([1]; first compound 0.025 µM),relative viability ([1]; first compound 0.07906 µM),relative viability ([1]; first compound 0.25 µM),relative viability ([2]; first compound 0.0025 µM),relative viability ([2]; first compound 0.007906 µM),relative viability ([2]; first compound 0.025 µM),relative viability ([2]; first compound 0.07906 µM),relative viability ([2]; first compound 0.25 µM),relative viability ([3]; first compound 0.08 µM),relative viability ([3]; first compound 0.253 µM),relative viability ([3]; first compound 0.8 µM),relative viability ([3]; first compound 2.53 µM),relative viability ([3]; first compound 8 µM),relative viability ([4]; first compound 0.08 µM),relative viability ([4]; first compound 0.253 µM),relative viability ([4]; first compound 0.8 µM),relative viability ([4]; first compound 2.53 µM),relative viability ([4]; first compound 8 µM)
NCI-H1666,0.969,0.954,1.01,1.14,1.1,0.571,0.621,0.548,0.538,0.593,0.984,0.979,1.04,1.04,1,0.974,0.951,0.955,0.986,0.911
NCI-H1734,0.843,1.1,0.772,0.931,1.02,0.349,0.218,0.168,0.164,0.156,0.193,0.215,0.214,0.19,0.191,0.764,0.694,0.72,0.641,0.648
NCI-H1755,1.05,1.03,1,1,1.06,0.637,0.607,0.589,0.583,0.622,0.535,0.365,0.454,0.412,0.715,0.976,0.875,0.955,0.927,0.877
NCI-H1792,0.608,0.572,0.445,0.509,0.524,0.259,0.173,0.127,0.172,0.155,0.477,0.473,0.499,0.413,0.493,0.655,0.727,0.669,0.741,0.827
NCI-H1793,0.617,0.415,0.411,0.435,0.501,0.211,0.213,0.138,0.138,0.135,0.159,0.215,0.255,,0.184,0.764,0.689,0.76,0.74,0.677
NCI-H1915,0.81,0.789,0.763,0.79,0.832,0.365,0.329,0.358,0.345,0.357,0.787,0.715,0.755,0.815,0.747,1.08,1.07,1.04,1.05,1.04
NCI-H1944,1.03,1.04,1.08,1.08,1.02,0.184,0.222,0.186,0.195,0.175,0.79,0.715,0.656,0.681,0.763,0.848,0.911,0.826,0.75,0.81
NCI-H1975,1.13,1.18,1.15,1.19,1.21,0.401,0.426,0.401,0.389,0.376,0.165,0.244,0.206,0.276,0.135,0.55,0.636,0.712,0.658,0.654
NCI-H1993,0.949,0.959,0.92,0.94,0.925,0.495,0.416,0.457,0.433,0.436,0.793,0.882,0.914,0.836,0.936,0.667,0.732,0.63,0.768,0.711
NCI-H2009,1.23,1.21,1.11,1.18,1.22,0.487,0.484,0.455,0.557,0.503,1.08,1.01,0.999,0.921,1.01,1.24,1.12,1.1,1.15,1.1
NCI-H2023,0.981,0.946,0.957,0.979,0.986,0.382,0.437,0.361,0.431,0.412,0.617,0.769,0.854,0.722,0.506,0.598,0.581,0.579,0.492,0.611
NCI-H2085,1.22,1.12,1.06,1.12,1.22,0.677,0.674,0.589,0.571,0.44,0.352,0.458,0.519,0.428,0.416,0.973,0.897,0.799,1.01,0.863
NCI-H2087,1.05,0.979,0.953,1.1,1.16,0.45,0.474,0.395,0.471,0.447,0.105,0.141,0.164,,0.128,1.11,1.13,1.05,1.09,0.874
NCI-H2126,0.852,0.877,0.882,0.829,0.826,0.583,0.526,0.523,0.529,0.585,0.841,0.858,0.892,0.897,0.883,0.766,0.758,0.745,0.737,0.752
NCI-H2170,0.613,0.747,0.556,0.612,0.543,0.377,0.384,0.432,0.378,0.378,0.678,0.799,0.684,0.687,0.72,0.798,0.776,0.832,0.795,0.788
NCI-H2228,0.955,0.961,1.15,1,1.14,0.366,0.377,0.327,0.403,0.247,0.213,0.152,0.111,0.184,0.155,0.744,0.722,0.735,0.779,0.74
